Assay results published in patent US10870647B2, “Imidazopyridine derivative, method for preparing same, and pharmaceutical composition containing same as active ingredient for preventing or treating cancer” (DAEGU-GYEONGBUK MEDICAL INNOVATION FOUNDATION, priority 2016, dated 2020).

Columns and labels:
Experiment in all cases: Kinase selectivity, scanMAX Kinase assay panel (DiscoverX), % control at 1 uM
Format in all cases: binding
[1] = target: T1, scanMAX Kinase assay panel (Homo sapiens, UniProt P22607, G697C); conditions: FGFR3 (G697C); 1 uM; read-out: Percent Control (%)
T1 construct: purchased DiscoverX
T1 sequence (P22607 23-806 G697C): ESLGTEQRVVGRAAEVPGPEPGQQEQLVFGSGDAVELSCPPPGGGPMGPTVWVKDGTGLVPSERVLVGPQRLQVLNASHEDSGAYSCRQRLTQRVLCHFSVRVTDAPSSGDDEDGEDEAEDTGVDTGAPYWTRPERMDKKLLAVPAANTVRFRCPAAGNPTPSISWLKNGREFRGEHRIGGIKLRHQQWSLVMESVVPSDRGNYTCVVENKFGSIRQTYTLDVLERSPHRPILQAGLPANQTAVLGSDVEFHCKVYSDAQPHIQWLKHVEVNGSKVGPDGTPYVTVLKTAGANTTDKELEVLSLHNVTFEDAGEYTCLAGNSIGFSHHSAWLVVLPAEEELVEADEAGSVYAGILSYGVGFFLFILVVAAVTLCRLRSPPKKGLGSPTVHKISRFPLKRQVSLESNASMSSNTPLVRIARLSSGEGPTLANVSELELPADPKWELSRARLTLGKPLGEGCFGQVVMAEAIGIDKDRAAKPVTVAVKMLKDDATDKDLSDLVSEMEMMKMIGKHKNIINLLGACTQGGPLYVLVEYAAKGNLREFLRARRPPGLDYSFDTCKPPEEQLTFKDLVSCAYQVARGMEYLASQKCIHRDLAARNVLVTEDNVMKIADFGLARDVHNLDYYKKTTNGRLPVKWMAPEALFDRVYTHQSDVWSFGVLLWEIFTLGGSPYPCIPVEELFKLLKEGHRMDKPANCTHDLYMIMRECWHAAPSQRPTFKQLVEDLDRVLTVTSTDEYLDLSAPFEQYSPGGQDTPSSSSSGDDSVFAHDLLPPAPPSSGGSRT
Method in brief: (§1)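 A single concentration of 1 uM, in DMSO, is applied across the kinase panel. Activity against an individual enzyme is assigned where % control is less than 35.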

[2] = target: T2, scanMAX Kinase assay panel (Homo sapiens, UniProt P49336); conditions: CDK8; 1 uM; read-out: Percent Control (%)
T2 construct: purchased DiscoverX
T2 sequence (P49336 whole entry): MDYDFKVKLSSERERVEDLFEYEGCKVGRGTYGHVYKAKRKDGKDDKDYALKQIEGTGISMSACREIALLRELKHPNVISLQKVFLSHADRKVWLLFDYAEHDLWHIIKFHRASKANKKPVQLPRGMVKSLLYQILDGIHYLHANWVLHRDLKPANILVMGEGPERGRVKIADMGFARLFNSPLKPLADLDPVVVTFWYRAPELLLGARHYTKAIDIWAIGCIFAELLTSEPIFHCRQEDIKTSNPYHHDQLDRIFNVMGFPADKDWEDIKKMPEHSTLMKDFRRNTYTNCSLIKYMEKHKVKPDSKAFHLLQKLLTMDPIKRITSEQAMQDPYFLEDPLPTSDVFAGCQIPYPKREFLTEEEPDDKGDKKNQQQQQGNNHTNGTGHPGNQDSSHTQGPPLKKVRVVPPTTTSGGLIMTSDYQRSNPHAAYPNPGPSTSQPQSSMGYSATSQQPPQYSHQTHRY
Method in brief: as §1

[3] = target: T3, scanMAX Kinase assay panel (Homo sapiens, UniProt Q8TF76); conditions: HASPIN; 1 uM; read-out: Percent Control (%)
T3 construct: purchased DiscoverX
T3 sequence (Q8TF76 1-798): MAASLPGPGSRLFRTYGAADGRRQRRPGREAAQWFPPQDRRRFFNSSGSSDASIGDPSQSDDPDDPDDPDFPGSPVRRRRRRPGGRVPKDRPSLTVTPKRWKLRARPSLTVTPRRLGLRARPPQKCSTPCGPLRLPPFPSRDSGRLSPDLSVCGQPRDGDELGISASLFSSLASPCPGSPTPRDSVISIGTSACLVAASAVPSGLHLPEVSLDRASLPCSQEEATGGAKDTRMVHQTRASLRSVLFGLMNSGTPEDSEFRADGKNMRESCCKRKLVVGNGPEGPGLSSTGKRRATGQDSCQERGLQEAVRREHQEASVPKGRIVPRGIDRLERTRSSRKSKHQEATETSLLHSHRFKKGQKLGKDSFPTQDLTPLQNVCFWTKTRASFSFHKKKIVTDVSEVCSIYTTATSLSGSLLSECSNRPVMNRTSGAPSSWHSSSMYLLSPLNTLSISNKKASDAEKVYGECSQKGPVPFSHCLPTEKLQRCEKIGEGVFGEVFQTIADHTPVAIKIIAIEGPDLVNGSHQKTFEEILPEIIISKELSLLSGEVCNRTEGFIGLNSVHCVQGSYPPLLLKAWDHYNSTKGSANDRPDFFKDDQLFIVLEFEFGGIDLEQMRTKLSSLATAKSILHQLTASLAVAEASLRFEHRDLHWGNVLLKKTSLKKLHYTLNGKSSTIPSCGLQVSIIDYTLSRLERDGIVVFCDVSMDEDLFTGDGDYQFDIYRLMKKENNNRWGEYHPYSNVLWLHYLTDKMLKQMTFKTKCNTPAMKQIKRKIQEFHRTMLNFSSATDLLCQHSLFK
Method in brief: as §1

[4] = target: T4, scanMAX Kinase assay panel (Homo sapiens, UniProt Q9NWZ3); conditions: IRAK4; 1 uM; read-out: Percent Control (%)
T4 construct: purchased DiscoverX
T4 sequence (Q9NWZ3 1-460): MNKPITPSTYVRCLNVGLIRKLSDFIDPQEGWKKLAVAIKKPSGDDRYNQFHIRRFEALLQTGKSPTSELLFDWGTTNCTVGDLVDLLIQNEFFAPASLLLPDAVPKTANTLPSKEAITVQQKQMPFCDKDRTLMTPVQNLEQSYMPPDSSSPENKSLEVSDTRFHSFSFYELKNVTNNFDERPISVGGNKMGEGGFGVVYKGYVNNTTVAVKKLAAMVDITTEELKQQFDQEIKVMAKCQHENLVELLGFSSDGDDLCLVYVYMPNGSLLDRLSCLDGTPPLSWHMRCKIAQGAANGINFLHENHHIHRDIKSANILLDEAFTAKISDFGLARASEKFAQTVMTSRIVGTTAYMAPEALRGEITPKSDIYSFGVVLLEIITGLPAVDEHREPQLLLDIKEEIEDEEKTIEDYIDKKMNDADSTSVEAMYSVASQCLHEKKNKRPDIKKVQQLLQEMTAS
Method in brief: as §1

[5] = target: T5, scanMAX Kinase assay panel (Homo sapiens, UniProt P42336, C420R); conditions: PIK3CA (C420R); 1 uM; read-out: Percent Control (%)
T5 construct: purchased DiscoverX
T5 sequence (P42336 whole entry C420R): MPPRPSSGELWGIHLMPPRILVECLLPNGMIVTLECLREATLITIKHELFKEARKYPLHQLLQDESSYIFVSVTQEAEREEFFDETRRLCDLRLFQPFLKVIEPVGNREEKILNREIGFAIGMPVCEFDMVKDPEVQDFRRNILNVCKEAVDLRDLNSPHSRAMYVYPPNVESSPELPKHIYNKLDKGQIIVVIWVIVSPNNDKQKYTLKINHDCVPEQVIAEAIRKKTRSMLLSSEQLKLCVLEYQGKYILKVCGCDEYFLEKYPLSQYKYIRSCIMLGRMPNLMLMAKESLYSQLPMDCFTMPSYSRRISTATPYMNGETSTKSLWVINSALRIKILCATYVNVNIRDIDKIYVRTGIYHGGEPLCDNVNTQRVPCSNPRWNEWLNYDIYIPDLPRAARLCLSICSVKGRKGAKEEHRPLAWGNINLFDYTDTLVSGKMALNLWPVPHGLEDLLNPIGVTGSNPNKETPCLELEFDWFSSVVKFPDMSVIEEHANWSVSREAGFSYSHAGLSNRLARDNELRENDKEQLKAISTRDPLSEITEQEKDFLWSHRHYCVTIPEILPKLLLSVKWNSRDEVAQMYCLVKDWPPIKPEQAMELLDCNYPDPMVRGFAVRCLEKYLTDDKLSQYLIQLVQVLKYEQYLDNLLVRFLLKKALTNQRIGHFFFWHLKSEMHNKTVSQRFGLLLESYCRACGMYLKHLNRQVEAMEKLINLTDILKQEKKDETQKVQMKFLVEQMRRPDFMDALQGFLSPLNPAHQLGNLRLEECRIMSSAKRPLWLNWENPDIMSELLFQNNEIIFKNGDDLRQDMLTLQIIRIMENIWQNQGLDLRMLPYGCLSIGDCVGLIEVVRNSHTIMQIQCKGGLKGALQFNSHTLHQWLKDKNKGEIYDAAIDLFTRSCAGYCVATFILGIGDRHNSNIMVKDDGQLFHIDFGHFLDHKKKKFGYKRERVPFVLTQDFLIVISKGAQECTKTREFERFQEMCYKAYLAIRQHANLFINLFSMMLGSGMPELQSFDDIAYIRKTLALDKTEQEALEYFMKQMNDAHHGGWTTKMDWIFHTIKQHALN
Method in brief: as §1

Compound	remaining binding at 1 µM [1]	remaining binding at 1 µM [2]	remaining binding at 1 µM [3]	remaining binding at 1 µM [4]	remaining binding at 1 µM [5]
Cc1ccc(C(=O)Nc2ccc(CN3CCN(C)CC3)c(C(F)(F)F)c2)cc1C#Cc1cnc2c(Nc3cnn(C)c3)cccn12 [Example 1, 4-methyl-3-((8-((1-methyl-1H-pyrazol-4-yl)amino)imidazo[1,2-a]pyridin-3-yl)ethynyl)-N-(4-((4-methylpiperazin-1-yl)methyl)-3-(trifluoromethyl)phenyl)benzamide]	3%	4%	80%	22%	97%
Cc1cn(-c2cc(NC(=O)c3ccc(C)c(C#Cc4cnc5c(Nc6cnn(C)c6)cccn45)c3)cc(C(F)(F)F)c2)cn1 [Example 12, 4-methyl-N-(3-(4-methyl-1H-imidazol-1-yl)-5-(trifluoromethyl)phenyl)-3-((8-((1-methyl-1H-pyrazol-4-yl)amino)imidazo[1,2-a]pyridin-3-yl)ethynyl)benzamide]	34%	31%	100%	81%	100%
Cc1ccc(NC(=O)C2(C(=O)Nc3ccc(F)cc3)CC2)cc1C#Cc1cnc2c(Nc3cnn(C(C)C)c3)cccn12 [Example 78]	96%	100%	85%	100%	100%
